Results: PubChem BioAssay (NCI)
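Here, GI50 denotes the concentration required for 50% inhibition of growth. TGI: concentration producing complete growth inhibition.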

How the values were obtained:
Assay in all cases: NCI tumour cell line growth inhibition, 384-well format
MDA-MB-231 breast = system: MDA-MB-231 breast
NCI-H23 lung = system: NCI-H23 lung
HT29 colon = system: HT29 colon
BT-549 breast = system: BT-549 breast
HL-60(TB) leukemia = system: HL-60(TB) leukemia
K-562 leukemia = system: K-562 leukemia
COLO 205 colon = system: COLO 205 colon
SNB-19 CNS = system: SNB-19 CNS
CCRF-CEM leukemia = system: CCRF-CEM leukemia
HCC-2998 colon = system: HCC-2998 colon
SR leukemia = system: SR leukemia
DU-145 prostate = system: DU-145 prostate
HOP-62 NSCLC = system: HOP-62 NSCLC
HCT-15 colon = system: HCT-15 colon
SK-MEL-2 melanoma = system: SK-MEL-2 melanoma
MDA-MB-435 melanoma = system: MDA-MB-435 melanoma
TK-10 renal = system: TK-10 renal
OVCAR-4 ovarian = system: OVCAR-4 ovarian
MDA-MB-468 breast = system: MDA-MB-468 breast
UACC-257 melanoma = system: UACC-257 melanoma
A549 NSCLC = system: A549 NSCLC
786-0 renal = system: 786-0 renal
NCI-H522 lung = system: NCI-H522 lung
U251 glioblastoma = system: U251 glioblastoma
NCI/ADR-RES ovarian = system: NCI/ADR-RES ovarian
MALME-3M melanoma = system: MALME-3M melanoma
RXF 393 renal = system: RXF 393 renal
SK-OV-3 ovarian = system: SK-OV-3 ovarian
OVCAR-5 ovarian = system: OVCAR-5 ovarian
OVCAR-3 ovarian = system: OVCAR-3 ovarian
RPMI-8226 leukemia = system: RPMI-8226 leukemia
SN12C renal = system: SN12C renal
LOX IMVI melanoma = system: LOX IMVI melanoma
OVCAR-8 ovarian = system: OVCAR-8 ovarian
NCI-H460 NSCLC = system: NCI-H460 NSCLC
UACC-62 melanoma = system: UACC-62 melanoma
SW-620 colon = system: SW-620 colon
NCI-H226 lung = system: NCI-H226 lung
SF-539 CNS = system: SF-539 CNS
M14 melanoma = system: M14 melanoma
A498 renal = system: A498 renal
UO-31 renal = system: UO-31 renal
MCF7 breast = system: MCF7 breast
T-47D breast = system: T-47D breast
CAKI-1 renal = system: CAKI-1 renal
HCT-116 colon = system: HCT-116 colon
MOLT-4 leukemia = system: MOLT-4 leukemia
NCI-H322M lung = system: NCI-H322M lung
SK-MEL-5 melanoma = system: SK-MEL-5 melanoma
IGROV1 ovarian = system: IGROV1 ovarian
ACHN renal = system: ACHN renal
HOP-92 NSCLC = system: HOP-92 NSCLC
KM12 colon = system: KM12 colon
PC-3 prostate = system: PC-3 prostate
SK-MEL-28 melanoma = system: SK-MEL-28 melanoma
SF-295 CNS = system: SF-295 CNS
SF-268 CNS = system: SF-268 CNS

Work on `c1ccc(Cn2c(-c3ccc(OC[C@H](C4CCNCC4)n4c(-c5ccccc5)nc5ccccc54)cc3)nc3ccccc32)cc1` yielded a GI50 (MDA-MB-231 breast) of 1.89 µM, a TGI (MDA-MB-231 breast) of 3.3 µM and a GI50 (NCI-H23 lung) of 2.23 µM. The TGI (NCI-H23 lung) was 3.68 µM, the GI50 (HT29 colon) was 1.66 µM and the TGI (HT29 colon) was 3.04 µM. It also gave a GI50 (BT-549 breast) of 1.7 µM, a TGI (BT-549 breast) of 3.08 µM and a GI50 (HL-60(TB) leukemia) of 1.79 µM. For the same compound, the TGI (HL-60(TB) leukemia) was 3.18 µM, the GI50 (K-562 leukemia) was 1.5 µM and the TGI (K-562 leukemia) was 2.83 µM. For the same compound, the GI50 (COLO 205 colon) was 1.82 µM, the TGI (COLO 205 colon) was 3.23 µM and the GI50 (SNB-19 CNS) was 1.97 µM. It also gave a TGI (SNB-19 CNS) of 3.4 µM, a GI50 (CCRF-CEM leukemia) of 1.26 µM and a TGI (CCRF-CEM leukemia) of 2.52 µM. For the same compound, the GI50 (HCC-2998 colon) was 1.36 µM, the TGI (HCC-2998 colon) was 2.65 µM and the GI50 (SR leukemia) was 1.17 µM. The TGI (SR leukemia) was 2.41 µM, the GI50 (DU-145 prostate) was 1.86 µM and the TGI (DU-145 prostate) was 3.28 µM. For the same compound, the GI50 (HOP-62 NSCLC) was 2.02 µM, the TGI (HOP-62 NSCLC) was 3.46 µM and the GI50 (HCT-15 colon) was 1.86 µM. For the same compound, the TGI (HCT-15 colon) was 3.28 µM, the GI50 (SK-MEL-2 melanoma) was 1.51 µM and the TGI (SK-MEL-2 melanoma) was 2.84 µM. It also gave a GI50 (MDA-MB-435 melanoma) of 2 µM, a TGI (MDA-MB-435 melanoma) of 3.43 µM and a GI50 (TK-10 renal) of 1.85 µM. The TGI (TK-10 renal) was 3.25 µM, the GI50 (OVCAR-4 ovarian) was 1.51 µM and the TGI (OVCAR-4 ovarian) was 2.85 µM. It also gave a GI50 (MDA-MB-468 breast) of 1.97 µM, a TGI (MDA-MB-468 breast) of 3.39 µM and a GI50 (UACC-257 melanoma) of 1.27 µM. It also gave a TGI (UACC-257 melanoma) of 2.53 µM, a GI50 (A549 NSCLC) of 1.84 µM and a TGI (A549 NSCLC) of 3.26 µM. It also gave a GI50 ([…]-0 renal) of 1.73 µM, a TGI (786-0 renal) of 3.12 µM and a GI50 (NCI-H522 lung) of 1.89 µM. For the same compound, the TGI (NCI-H522 lung) was 3.29 µM, the GI50 (U251 glioblastoma) was 1.59 µM and the TGI (U251 glioblastoma) was 2.96 µM. For the same compound, the GI50 (NCI/ADR-RES ovarian) was 2.4 µM, the TGI (NCI/ADR-RES ovarian) was 5.2 µM and the GI50 (MALME-3M melanoma) was 1.79 µM. It also gave a TGI (MALME-3M melanoma) of 3.18 µM, a GI50 (RXF 393 renal) of 1.58 µM and a TGI (RXF 393 renal) of 2.92 µM. The GI50 (SK-OV-3 ovarian) was 1.68 µM, the TGI (SK-OV-3 ovarian) was 3.06 µM and the GI50 (OVCAR-5 ovarian) was 2.03 µM. For the same compound, the TGI (OVCAR-5 ovarian) was 3.47 µM, the GI50 (OVCAR-3 ovarian) was 1.81 µM and the TGI (OVCAR-3 ovarian) was 3.22 µM. For the same compound, the GI50 (RPMI-8226 leukemia) was 0.971 µM, the TGI (RPMI-8226 leukemia) was 2.14 µM and the GI50 (SN12C renal) was 1.82 µM. It also gave a TGI (SN12C renal) of 3.22 µM, a GI50 (LOX IMVI melanoma) of 2.33 µM and a TGI (LOX IMVI melanoma) of 3.8 µM. It also gave a GI50 (OVCAR-8 ovarian) of 1.81 µM, a TGI (OVCAR-8 ovarian) of 3.22 µM and a GI50 (NCI-H460 NSCLC) of 1.7 µM. It also gave a TGI (NCI-H460 NSCLC) of 3.12 µM, a GI50 (UACC-62 melanoma) of 1.89 µM and a TGI (UACC-62 melanoma) of 3.3 µM. It also gave a GI50 (SW-620 colon) of 1.74 µM, a TGI (SW-620 colon) of 3.14 µM and a GI50 (NCI-H226 lung) of 1.77 µM. For the same compound, the TGI (NCI-H226 lung) was 3.16 µM, the GI50 (SF-539 CNS) was 1.66 µM and the TGI (SF-539 CNS) was 3.03 µM. The GI50 (M14 melanoma) was 1.79 µM, the TGI (M14 melanoma) was 3.18 µM and the GI50 (A498 renal) was 1.7 µM. The TGI (A498 renal) was 3.08 µM, the GI50 (UO-31 renal) was 1.87 µM and the TGI (UO-31 renal) was 3.27 µM. The GI50 (MCF7 breast) was 1.61 µM, the TGI (MCF7 breast) was 2.98 µM and the GI50 (T-47D breast) was 1.61 µM. It also gave a TGI (T-47D breast) of 2.97 µM, a GI50 (CAKI-1 renal) of 1.84 µM and a TGI (CAKI-1 renal) of 3.24 µM. It also gave a GI50 (HCT-116 colon) of 1.45 µM, a TGI (HCT-116 colon) of 2.78 µM and a GI50 (MOLT-4 leukemia) of 1.16 µM. The TGI (MOLT-4 leukemia) was 2.41 µM, the GI50 (NCI-H322M lung) was 1.69 µM and the TGI (NCI-H322M lung) was 3.06 µM. For the same compound, the GI50 (SK-MEL-5 melanoma) was 1.82 µM, the TGI (SK-MEL-5 melanoma) was 3.22 µM and the GI50 (IGROV1 ovarian) was 1.65 µM. The TGI (IGROV1 ovarian) was 3.02 µM, the GI50 (ACHN renal) was 1.84 µM and the TGI (ACHN renal) was 3.25 µM. For the same compound, the GI50 (HOP-92 NSCLC) was 1.63 µM, the TGI (HOP-92 NSCLC) was 2.99 µM and the GI50 (KM12 colon) was 1.8 µM. The TGI (KM12 colon) was 3.21 µM, the GI50 (PC-3 prostate) was 1.83 µM and the TGI (PC-3 prostate) was 3.25 µM. For the same compound, the GI50 (SK-MEL-28 melanoma) was 1.83 µM, the TGI (SK-MEL-28 melanoma) was 3.23 µM and the GI50 (SF-295 CNS) was 1.86 µM. The TGI (SF-295 CNS) was 3.27 µM, the GI50 (SF-268 CNS) was 1.8 µM and the TGI (SF-268 CNS) was 3.2 µM.
